According to publication PMC12980303, “Development of a novel risk score reflecting the relative harm potential of synthetic cannabinoids based on prevalence estimates, well‐documented intoxication cases and basic pharmacological data” (Addiction (Abingdon, England), 2025):
Where “and” joins values, the source holds several entries; their conditions need not be identical. Identical values can stand only once. Like-named read-outs stand apart in the source and are kept apart here. Marks after values point to notes of the source that are not given here.

Columns and labels:
hCB1 receptor [1] = molecular target: T1, hCB1 receptor (Homo sapiens, UniProt P21554); assay: functional [35S]GTPγS hCB1 activation assay; type: biochemical; settings: for Emax: read-out: [35S]‐GTPγS assay Emax [%] (95% CI)
Method: (§1) Receptor assays were performed on three different days and each concentration was tested in duplicate.

[2] = risk score from prevalence in routine forensic samples and intoxication cases (G1, PSS, TSS); design: species or system human; settings: for G total (risk score): G1+G2+G3, higher value = greater toxicological risk; for G2: mean Poison Severity Score (PSS) of all intoxications with the SCRA; for G3: mean Toxicological Significance Score (TSS) of all intoxications with the SCRA; for G1: proportion in intoxication cases relative to prevalence in routine serum/blood and urine samples per quarter, 2013–2021, >1 over‐represented in intoxications
Text: Therefore, higher values indicate substances with a higher risk. […] To take into account the severity of symptoms and the contribution of the specific NPS, two further summands were introduced. The first is based on the PSS, the second on the TSS. Again, higher values were associated with more severe symptoms and a stronger role of the NPS in causing the symptoms.
The risk score is composed of three components (parts G1, G2 and G3) and was designed as follows: (1) Gx=G1x+G2x+G3x,
Equation 2 takes into consideration several components: the number of intoxications with SCRA x in quarter k over the total number of intoxications of all investigated SCRAs in the same quarter; the number of serum/blood samples positive for SCRA x over the total number of serum/blood samples positive for all SCRAs plus the number of urine samples positive for SCRA x over the total number of urine samples positive for all SCRAs (this is divided by two to account for the two different sample types); and the number of quarters in which the SCRA x was prevalent. (2) G1x=∑k=1gak/bk/ck/dk+ek/fk/2/h+i
Consequently, equation 2 was mathematically rearranged. To further simplify the equation and reduce the formula signs, in equation 3 the following simplifications were taken: a/b=ai , c/d=as and e/f=au .
The sum of these quotients was divided by the number of all prevalent quarters (q p ). Prevalent quarters were defined as quarters in which on average the substance was detected in more than 5% of the positive serum and urine samples. If a poisoning occurred in a quarter in which the substance was not prevalent, the number of these quarters was added (q i ). This part of the score has similarities with an OR [42]. If the proportion of routine samples in a given quarter in which an intoxication with the respective substance occurred was zero (a s + a u = 0), a value of 0.01 was used for that quarter in the calculation of the quotient to avoid division by zero.
For part G2, the severity of the intoxication caused by the respective SCRA x was assessed on the basis of reported symptoms and follow‐up information using the PSS [20]. The PSS classifies the intoxication severity into five levels: (0) no, (1) mild, (2) moderate, (3) severe, and (4) fatal intoxication. […] For this purpose, the mean value of the PSS of all intoxications with the respective SCRA x was calculated ( G2x) .
For part G3, the involvement of the SCRA in the respective intoxications was assessed. This was evaluated on the basis of the TSS [21]. Elliott et al. developed the TSS to assess and classify the contribution of NPS in fatalities. In the present study, the TSS was determined to weigh the involvement of the investigated SCRA in the intoxication and the contribution of the SCRA to the observed symptoms. To determine the TSS value, factors such as the determined concentration of the SCRA, the presence of other recreational drugs or medicinal drugs, the general health of the patient and the consumption circumstances need to be considered. […] In cases with more than one drug detected, a TSS of 3 was only assigned where other compounds were present at concentrations below the range in which relevant effects are to be expected.
For the risk score, the mean value of the TSS of all intoxications with substance x was calculated ( G3x) . Analogous to the value of G2x , the value of G3x can theoretically be between 1 and 3. With a value of ‘1’, substance x was not mainly responsible for the symptoms in all of the intoxications (low level of significance), and with a value of ‘3’, it was the main cause in every poisoning in which it was detected.

hCB1 receptor [3] = molecular target: T1, hCB1 receptor
hCB1 receptor [4] = molecular target: T1, hCB1 receptor; assay: competitive [3H]CP‐55940 radioligand binding assay (hCB1 receptor affinity); settings: [3H]CP‐55940 competition, hCB1 membrane preparations (HEK293‐EBNA), Cheng–Prusoff, 95% CI in brackets
Method: as §1
From the IC50, the respective Ki values were calculated using the Cheng–Prusoff equation [39].

[5] = occurrence of SCRAs in intoxication samples of the prospective study; design: species or system human; settings: 2013 to 2021; for No. of intoxications: 139 intoxication samples of the prospective study; for Percentage in %: proportion of 139 intoxications in which the substance was detected
Text: For this study, the 10 SCRAs (AB‐[…], ADB‐[…], AB‐FUBINACA, FUB‐AMB, Cumyl‐PEGACLONE, MDMB‐4en‐PINACA, MDMB‐CHMICA, 5F‐MDMB‐PICA, 5F‐ADB and 5F‐PB‐22) which were most frequently detected in intoxications in a prospective observational study during the time period of 2013 to 2021 were selected (see Table 1). Additionally, JWH‐210, a model compound representative of the early SCRAs, along with two substances prevalent in screenings during years 2019/2020 (5F‐Cumyl‐PEGACLONE and 4F‐MDMB‐BICA), were included in this study (see Tables S2–S7). […] JWH‐018 was also included as a reference compound because of its historical use in this capacity. Including both reference compounds facilitates direct comparison with previously published data, thereby enhancing the relevance and interpretability of the results obtained in the present study. Information on the origin of the test and reference compounds and all chemicals used in this study can be found in Table S1.
The data on intoxication cases used for the development of this risk score were obtained from a prospective study. This study included patients who were treated in an emergency department room following the consumption of an NPS. Clinical symptoms and follow‐up information were documented using a structured questionnaire completed by the attending physicians. The methodology has been previously published. Residual serum (obtained from venous blood) and urine samples, accompanied by the completed questionnaires, were sent to the Poisons Information Center Freiburg for further analysis. The toxicological analyses of serum and urine samples were conducted at the Institute of Forensic Medicine Freiburg. No data was available on previous consumption patterns or potential development of tolerance after continued misuse. The study was conducted in accordance with the Declaration of Helsinki and approved by the regional ethics committee of the University of Freiburg (no. 235/13_130683). The intoxication cases included in this study are those in which SCRA use was confirmed by liquid chromatography tandem mass spectrometry (LC–MS/MS).

[6] = read-out: βarr2 assay EC50 [nM] (95% CI); ref Janssens et al. [43]; cited from earlier work
[7] = relative to CP‐55940; originally normalised to JWH‐018, corrected with factor 0.3268; ref Janssens et al. [43]; cited from earlier work
[8] = read-out: βarr2 assay EC50 [nM] (95% CI); ref Noble et al. [30]; cited from earlier work
[9] = relative to CP‐55940; originally normalised to JWH‐018, corrected with factor 0.3268; ref Noble et al. [30]; cited from earlier work
[10] = relative to CP‐55940; ref Grafinger et al. [27]; cited from earlier work

T1 sequence (P21554 whole entry): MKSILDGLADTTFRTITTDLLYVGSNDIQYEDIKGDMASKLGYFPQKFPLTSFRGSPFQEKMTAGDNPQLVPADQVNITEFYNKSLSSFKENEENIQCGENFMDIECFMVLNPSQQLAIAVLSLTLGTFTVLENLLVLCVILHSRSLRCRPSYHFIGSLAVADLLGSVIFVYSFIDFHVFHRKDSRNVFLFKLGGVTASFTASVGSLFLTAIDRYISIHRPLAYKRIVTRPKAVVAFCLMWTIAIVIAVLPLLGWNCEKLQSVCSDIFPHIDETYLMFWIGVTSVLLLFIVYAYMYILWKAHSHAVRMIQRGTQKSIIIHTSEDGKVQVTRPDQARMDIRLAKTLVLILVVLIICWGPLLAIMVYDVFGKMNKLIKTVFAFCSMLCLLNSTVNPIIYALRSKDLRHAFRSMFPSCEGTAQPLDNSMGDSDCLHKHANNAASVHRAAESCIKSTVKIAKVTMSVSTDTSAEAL

SMILES | EC50 (hCB1 receptor [1]) [nM] | Emax (hCB1 receptor [1]) [%] | G total (risk score) [2] | G2 [2] | G3 [2] | G1 [2] | Ki (hCB1 receptor [4]; Ki [nM] (95% CI)) | No. of intoxications [5] | Percentage in % [5] [%] | further results
CC(C)(C)C(NC(=O)c1nn(CC2CCCCC2)c2ccccc12)C(N)=O (centres unmarked) | 0.467 | 124 | 7.1 | 2.1 | 2.7 | 2.3 | 0.0229 nM and 0.0231 nM | 18 | 13 | EC50 (hCB1 receptor [3]; read-out: βarr2 assay EC50 [nM] (95% CI); ref Wouters et al. [29]; cited from earlier work): 0.34 nM; βarr2 assay Emax [%] (95% CI) (hCB1 receptor [3]; relative to CP‐55940; originally normalised to JWH‐018, corrected with factor 0.3268; ref Wouters et al. [29]; cited from earlier work): 803.6 ^a (724.3–921.4) %
COC(=O)C(NC(=O)c1cn(CCCCF)c2ccccc12)C(C)(C)C (centres unmarked) [4F‐MDMB‐BICA] | 137 | 104 | 5.5 | 2.0 | 3.0 | 0.48 | 5.67 nM | 2 | 1.4 | EC50 (hCB1 receptor [3]; read-out: βarr2 assay EC50 [nM] (95% CI); ref Cannaert et al. [44]; cited from earlier work): 121 nM; βarr2 assay Emax [%] (95% CI) (hCB1 receptor [3]; relative to CP‐55940; originally normalised to JWH‐018, corrected with factor 0.3268; ref Cannaert et al. [44]; cited from earlier work): 774.2 (685.4–911.9) ^a %
COC(=O)C(NC(=O)c1nn(CCCCCF)c2ccccc12)C(C)(C)C (centres unmarked) [5F‐ADB] | 1.95 | 103 | 6.9 | 1.9 | 2.6 | 2.5 | 0.0993 nM | 33 | 24 | EC50 (hCB1 receptor [3]; ref Wouters et al. [29]; read-out: βarr2 assay EC50 [nM] (95% CI); cited from earlier work): 0.84 nM
CC(C)(c1ccccc1)n1ccc2c(c1=O)c1ccccc1n2CCCCCF [5F‐Cumyl‐PEGACLONE] | 1.64 | 105 | 3.1 | 2.0 | 1.0 | 0.11 | 0.0991 nM | 1 | 0.72 | EC50 (hCB1 receptor [3]; [6]): 0.58 nM; βarr2 assay Emax [%] (95% CI) (hCB1 receptor [3]; [7]): 1089 (988.4–1190) ^a %
COC(=O)C(NC(=O)c1cn(CCCCCF)c2ccccc12)C(C)(C)C (centres unmarked) [5F‐MDMB‐PICA] | 7.88 | 112 | 8.1 | 2.1 | 2.8 | 3.2 | 0.321 nM | 15 | 11 | EC50 (hCB1 receptor [3]; [8]): 3.26 nM; βarr2 assay Emax [%] (95% CI) (hCB1 receptor [3]; [9]): 1014 (951.7–1075) ^a %
CC(C)C(NC(=O)c1nn(Cc2ccc(F)cc2)c2ccccc12)C(N)=O (centres unmarked) [AB‐FUBINACA] | 17.5 | 114 | – | – | – | – | 0.385 nM | – | – | EC50 (hCB1 receptor [3]; [8]): 15.6 nM; βarr2 assay Emax [%] (95% CI) (hCB1 receptor [3]; [9]): 990.5 (922.9–1059) ^a %
CCCCCCC(C)(C)c1ccc([C@@H]2C[C@H](O)CC[C@H]2CCCO)c(O)c1 [CP‐55940, reference compound] | – | 96.9 | – | – | – | – | – | – | – | –
CCCCCn1c2ccccc2c2c(=O)n(C(C)(C)c3ccccc3)ccc21 [Cumyl‐PEGACLONE] | 12.4 | 117 | 4.5 | 2.0 | 2.2 | 0.32 | 0.242 nM | 5 | 3.6 | EC50 (hCB1 receptor [3]; [6]): 0.23 nM; βarr2 assay Emax [%] (95% CI) (hCB1 receptor [3]; [7]): 1053 (960.8–1148) ^a %
CCCCCn1cc(C(=O)c2cccc3ccccc23)c2ccccc21 [JWH‐018, reference compound] | 38.6 | 118 | – | – | – | – | 2.86 nM | – | – | βarr2 assay Emax [%] (95% CI) (hCB1 receptor [3]; [10]): 306 ^b (281–333) %
CCCCCn1cc(C(=O)c2ccc(CC)c3ccccc23)c2ccccc21 [JWH‐210] | 41.9 | 93.4 | 5.7 | 1.6 | 2.7 | 1.4 | – | 3 | 2.2 | EC50 (hCB1 receptor [3]; read-out: βarr2 assay EC50 [nM] (95% CI); ref Cannaert et al. [45]; cited from earlier work): 25.3 nM; βarr2 assay Emax [%] (95% CI) (hCB1 receptor [3]; relative to CP‐55940; originally normalised to JWH‐018, corrected with factor 0.3268; ref Cannaert et al. [45]; cited from earlier work): 714.2 (672.3–759.5) ^a ^, ^i %; Ki (hCB1 receptor [4]; read-out: Ki [nM] (95% CI)): 1.43 nM
C=CCCCn1nc(C(=O)NC(C(=O)OC)C(C)(C)C)c2ccccc21 (centres unmarked) [MDMB‐4en‐PINACA] | 13.4 | 114 | 6.8 | 2.2 | 3.0 | 1.6 | – | 6 | 4.3 | EC50 (hCB1 receptor [3]; ref Grafinger et al. [27]; read-out: βarr2 assay EC50 [nM] (95% CI); cited from earlier work): 1.88 nM; βarr2 assay Emax [%] (95% CI) (hCB1 receptor [3]; [10]): 679 (623–730) %
COC(=O)C(NC(=O)c1cn(CC2CCCCC2)c2ccccc12)C(C)(C)C (centres unmarked) [MDMB‐CHMICA] | 11.8 | 103 | 5.7 | 2.2 | 2.8 | 0.73 | 0.935 nM | 31 | 22 | EC50 (hCB1 receptor [3]; read-out: βarr2 assay EC50 [nM] (95% CI); ref Wouters et al. [31]; cited from earlier work): 2.2 nM; βarr2 assay Emax [%] (95% CI) (hCB1 receptor [3]; relative to CP‐55940; ref Wouters et al. [31]; cited from earlier work): 885.7 (818.5–958.0) %
